IC50 and melting point data for 28 compounds are collected here from US6399782B1, “Benzimidazole inhibitors of fructose 1,6-bisphosphatase” (Metabasis Therapeutics, Inc., priority 1997, dated 2002).

Where a name gives a salt, the structure may show the parent alone. A value given as a limit tells only on which side of the number the result lay.

One series addresses T1, mouse liver FBPase (Mus musculus, UniProt Q9QXD6).
T1 construct: This partially purified fraction was used for enzyme assays; from tissue; host or cells: mouse liver, 45-75% ammonium sulfate fraction
T1 sequence (Q9QXD6 2-338 limits assumed): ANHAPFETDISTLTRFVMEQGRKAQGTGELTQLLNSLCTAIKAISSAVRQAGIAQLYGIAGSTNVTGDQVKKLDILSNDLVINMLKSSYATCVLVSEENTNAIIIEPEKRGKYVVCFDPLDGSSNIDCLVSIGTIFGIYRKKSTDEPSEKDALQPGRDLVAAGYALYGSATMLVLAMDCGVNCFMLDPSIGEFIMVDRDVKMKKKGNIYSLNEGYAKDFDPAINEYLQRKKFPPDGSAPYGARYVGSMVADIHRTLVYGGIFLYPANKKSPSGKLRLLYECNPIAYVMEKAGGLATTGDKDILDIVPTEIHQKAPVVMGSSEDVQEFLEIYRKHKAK
Put plainly: Inhibition of mouse liver FBPase. Type of series: biochemical. The following applies: partially purified mouse liver fraction. Here is the method: Enzymatic activity was measured spectrophotometrically in reactions that coupled the formation of product (fructose 6-phosphate) to the reduction of dimethylthiazoldiphenyltetrazolium bromide (MTT) via NADP and phenazine methosulfate (PMS), using phosphoglucose isomerase and glucose 6-phosphate dehydrogenase as the coupling enzymes. Reaction mixtures (200 μl) were made up in 96-well microtitre plates, and consisted of 50 mM Tris-HCl, pH 7.4, 100 mM KCl, 5 mM EGTA, 2 mM MgCl2, 0.2 mM NADP, 1 mg/ml BSA, 1 mM MTT, 0.6 mM PMS, 1 unit/mL phosphoglucose isomerase, 2 units/mL glucose 6-phosphate dehydrogenase, and 0.150 mM substrate (fructose 1,6-bisphosphate). Inhibitor concentrations were varied from 0.01 μM to 10 μM.
Mouse liver FBPase was obtained by homogenizing freshly isolated mouse liver in 100 mM Tris-HCl buffer, pH 7.4, containing 1 mM EGTA, and 10% glycerol. […] This fraction was redissolved in the homogenization buffer and desalted on a PD-10 gel filtration column (Biorad) eluted with same. This partially purified fraction was used for enzyme assays. Both rat liver and mouse liver FBPase were assayed as described for human liver FBPase.

For another series, the system named is rat hepatocytes. Put plainly: Inhibition of gluconeogenesis in rat hepatocytes. Type of series: cell-based. Conditions: glucose production from lactate/pyruvate, isolated rat hepatocytes, 1 hour. The procedure: Hepatocytes were prepared from overnight fasted Sprague-Dawley rats (250-300 g) according to the procedure of Berry and Friend (Berry, M. N., Friend, D. S., 1969, J. Cell. Biol. 43, 506-520) as modified by Groen (Groen, A. K., Sips, H. J., Vervoorn, R. C., Tager, J. M., 1982, Eur. J. Biochem. 122, 87-93). Hepatocytes (75 mg wet weight/mL) were incubated in 1 ml Krebs-bicarbonate buffer containing 10 mM Lactate, 1 mM pyruvate, 1 mg/mL BSA, and test compound concentrations from 1 to 500 μM. Incubations were carried out in a 95% oxygen, 5% carbon dioxide atmosphere in closed, 50-mL Falcon tubes submerged in a rapidly shaking water bath (37° C.). After 1 hour, an aliquot (0.25 mL) was removed, transferred to an Eppendorf tube and centrifuged. 50 μL of supernatant was then assayed for glucose content using a Sigma Glucose Oxidase kit as per the manufacturer's instructions.

In turn, `COC(=O)c1cccc(Cn2c(-c3ccc(P(=O)(O)O)o3)nc3c(N)cccc32)c1` [Compound 12.6, 4-Amino-1-(3-carbomethoxybenzyl)-2-[2-(5-phosphono)furanyl]benzimidazole] came in with a melting point of 198 to 202 °C. The same compound gave an IC50 against mouse liver FBPase above 20000 nM.
Regarding `Nc1cccc2c1nc(-c1ccc(P(=O)(O)O)o1)n2CCCCl` [Compound 12.35, 4-Amino-1-(3-chloropropyl)-2-[2-(5-phosphono)furanyl]benzimidazole], at mouse liver FBPase, the IC50 was above 20000 nM.
Still for that read-out and setting: in the case of `Nc1cccc2c1nc(-c1ccc(P(=O)(O)O)o1)n2Cc1ccoc1` [Compound 12.37, 4-Amino-1-(3-furanylmethyl)-2-[2-(5-phosphono)furanyl]benzimidazole] it was 1270 nM.
In the series on rat hepatocytes, `CC(C)Cn1c(-c2ccc(P(=O)(O)O)o2)nc2c(N)c(Br)cc(Br)c21` [Compound 12.42, 4-Amino-5,7-dibromo-1-isobutyl-2-[2-(5-phosphono)furanyl]benzimidazole] had an IC50 of 14000 nM.
Still for that read-out and setting: to `CC(C)Cn1c(-c2ccc(P(=O)(O)O)o2)nc2c(N)c(Br)ccc21` [Compound 12.44, 4-Amino-5-bromo-1-isobutyl-2-[2-(5-phosphono)furanyl]benzimidazole] belongs 14000 nM.
Regarding `CC(C)Cn1c(-c2ccc(P(=O)(O)O)o2)nc2c(N)c(Cl)cc(Cl)c21` [Compound 12.50, 4-Amino-5,7-dichloro-1-isobutyl-2-(2-phosphono-5-furanyl)benzimidazole], the melting point was 205 to 207 °C. In the series with rat hepatocytes (Hepatocyte), the IC50 came to 17000 nM.
In turn, `CC(C)Cn1c(-c2ccc(P(=O)(O)O)o2)nc2c(N)c(F)cc(Cl)c21` [Compound 12.54, 4-Amino-5-fluoro-7-chloro-1-isobutyl-2-(2-phosphono-5-furanyl)benzimidazole] registered a melting point of 220 to 225 °C. For the same compound, the IC50 on mouse liver FBPase was determined as 1070 nM.
The compound `CC(C)Cn1c(-c2ccc(P(=O)(O)O)o2)nc2c(N)c(F)cc(Br)c21` [Compound 12.62, 4-Amino-5-fluoro-7-bromo-1-isobutyl-2-(2-phosphono-5-furanyl)benzimidazole] returned a melting point of 195 to 200 °C. In the series with rat hepatocytes (Hepatocyte), the IC50 came to 5000 nM.
Taken in the same sequence, the figures for `CC(C)Cn1c(-c2ccc(P(=O)(O)O)o2)nc2c(N)c(F)c(Cl)cc21` [Compound 12.63, 4-Amino-5-fluoro-6-chloro-1-isobutyl-2-(2-phosphono-5-furanyl)benzimidazole] were 175 to 180 °C and 16000 nM.
As for `CC(C)Cn1c(-c2ccc(P(=O)(O)O)o2)nc2c(N)c(F)cc(CCCO)c21` [Compound 12.79, 4-Amino-7-(propane-3-ol)-5-fluoro-1-isobutyl-2-(2-phosphono-5-furanyl)benzimidazole], the melting point lay within 170 to 173 °C. The compound further registered an IC50 against mouse liver FBPase of 720 nM. The same compound had an IC50 with rat hepatocytes (Hepatocyte) of 1000 nM.
The corresponding values for `CC(C)Cn1c(-c2ccc(P(=O)(O)O)o2)nc2c(N)c(F)cc(CCCBr)c21` [Compound 12.80, 4-Amino-5-fluoro-7-(3-bromopropyl)-1-isobutyl-2-(2-phosphono-5-furanyl)benzimidazole] are 190 to 195 °C (dec.), 300 nM and 1600 nM.
The corresponding values for `CC(C)Cn1c(-c2ccc(P(=O)(O)O)o2)nc2c(N)c(F)cc(CCCCBr)c21` [Compound 12.82, 4-Amino-5-fluoro-7-(4-bromobutyl)-1-isobutyl-2-(2-phosphono-5-furanyl)benzimidazole] are 200 to 220 °C (dec.), 300 nM and 2200 nM.
The compound `CC(C)Cn1c(-c2ccc(P(=O)(O)O)o2)nc2c(N)c(F)cc(CCCN(C)C)c21` [Compound 12.84, 4-Amino-5-fluoro-7-(3-N,N-dimethylpropylamine)-1-isobutyl-2-(2-phosphono-5-furanyl)benzimidazole hydrobromide salt] came in with an IC50 at mouse liver FBPase of 500 nM.
Consider `CC(C)Cn1c(-c2ccc(P(=O)(O)O)o2)nc2c(O)cccc21` [Compound 13.21, 4-Hydroxy-1-isobutyl-2-(2-phosphono-5-furanyl)benzimidazole], for which the melting point fell in the range of 244 to 245 °C. Moreover, at mouse liver FBPase, the IC50 was above 20000 nM.
As to `CC(C)(C)Cn1c(-c2ccc(P(=O)(O)O)o2)nc2c(F)cccc21` [Compound 13.25, 4-Fluoro-1-neopentyl-2-(2-phosphonofuranyl)benzimidazole], the IC50 against mouse liver FBPase is above 20000 nM.
On the same count and under the same terms, in the case of `CC(C)(C)Cn1c(-c2ccc(P(=O)(O)O)o2)nc2ccc(Cl)cc21` [Compound 13.56, 6-Chloro-1-neopentyl-2-(2-phosphono-5-furanyl)benzimidazole] it was above 20000 nM.
With `Cc1c(Cl)cc2c(nc(-c3ccc(P(=O)(O)O)o3)n2CC2CC2)c1C` [Compound 13.61, 6-Chloro-4,5-dimethyl-1-cyclopropylmethyl-2-(2-phosphono-5-furanyl)benzimidazole], the melting point lay in the range of 219 to 220 °C. For the same compound, the IC50 against mouse liver FBPase is above 20000 nM.
Take `COc1cccc(-n2c(-c3ccc(P(=O)(O)O)o3)nc3ccc(Cl)cc32)c1` [Compound 13.65, 6-Chloro-1-(3-methoxyphenyl)-2-(2-phosphono-5-furanyl)benzimidazole]: the melting point is 184 to 185 °C.
`O=C(NCP(=O)(O)O)c1nc2ccccc2[nH]1` [Compound 13.66, N-(Phosphonomethyl)benzimidazole-2-carboxamide] displayed a melting point of 258 to 260 °C. At mouse liver FBPase, this compound showed an IC50 above 20000 nM.
As for `CC(C)Cn1c(-c2ccc(P(=O)(O)O)o2)nc2cc(F)c([N+](=O)[O-])c(Br)c21` [Compound 13.68, 1-Isobutyl-5-fluoro-6-nitro-7-bromo-2-(2-phosphono-5-furanyl)benzimidazole], the melting point fell in the range of 161 to 165 °C.
The same measure, in the same setting: in the case of `CC(C)Cn1c(-c2ccc(P(=O)(O)O)o2)nc2cc(F)c(N)c(Br)c21` [Compound 13.69, 1-Isobutyl-5-fluoro-6-amino-7-bromo-2-(2-phosphono-5-furanyl)benzimidazole] it was 208 to 211 °C; in that of `CC(=O)Nc1c(F)cc2nc(-c3ccc(P(=O)(O)O)o3)n(CC(C)C)c2c1Br` [Compound 13.76, 1-Isobutyl-5-fluoro-6-acetamido-7-bromo-2-(2-phosphono-5-furanyl)benzimidazole], 217 to 221 °C (dec.).
Still for that read-out and setting: to `CCc1c(Cl)c(F)cc2[nH]c(-c3ccc(P(=O)(O)O)o3)nc12` [Compound 13.80, 5-Fluoro-6-chloro-7-ethyl-2-(2-phosphono-5-furanyl)benzimidazole] belongs 165 to 190 °C; to `Cc1c(C)c(C)c2[nH]c(-c3ccc(P(=O)(O)O)o3)nc2c1C` [Compound 13.82, 4,5,6,7-Tetramethyl-2-(2-phosphono-5-furanyl)benzimidazole], 202 to 206 °C; to `Cc1c(Cl)cc2c(nc(-c3ccc(P(=O)(O)O)o3)n2CCCCBr)c1C` [Compound 13.90, 1-(4-Bromobutyl)-4,5-dimethyl-6-chloro-2-(2-phosphono-5-furanyl)benzimidazole], 212 to 216 °C.
As for `Cc1c(Cl)ccc2c1nc(-c1ccc(P(=O)(O)O)o1)n2CC(C)C` [Compound 13.96, 1-Isobutyl-4-methyl-5-chloro-2-(2-phosphono-5-furanyl)benzimidazole], half-maximal inhibition at mouse liver FBPase (IC50) required 700 nM.
For the compound `CC(C)Cn1c(COCP(=O)(O)O)nc2c(N)c(F)cc(Br)c21` [Compound 15.1, 4-Amino-5-fluoro-7-bromo-1-isobutyl-2-(1-methoxymethyl-3-phosphono)benzimidazole], the melting point is 200 to 202 °C (dec.). At mouse liver FBPase, this compound returned an IC50 of 1500 nM. It took 16000 nM to reach half-maximal inhibition in the series with rat hepatocytes (Hepatocyte) (IC50).
As to `CC(C)Cn1c(-c2ccc(P(=O)(OCOC(=O)C(C)(C)C)OCOC(=O)C(C)(C)C)o2)nc2c(N)c(Cl)cc(Cl)c21` [Compound 18.2, 4-Amino-5,7-dichloro-1isobutyl-2-(5-furanyl-2-bispivaloyloxymethylphosphonate)benzimidazole], in the series on rat hepatocytes, half-maximal inhibition (IC50) required 17000 nM. In other words, the double-digit micromolar range.
